Test results reported in ChEMBL document CHEMBL1212833, “Protein lysine methyltransferase G9a inhibitors: design, synthesis, and structure activity relationships of 2,4-diamino-7-aminoalkoxy-quinazolines” (J Med Chem, 2010).

Key:
[1] = target: T1, Histone-lysine N-methyltransferase EHMT2 (Homo sapiens, UniProt Q96KQ7); assay: Activity at methyl transferase activity G9a by enzyme coupled S-adenocylehomocystein detection assay
T1 sequence (Q96KQ7 whole entry): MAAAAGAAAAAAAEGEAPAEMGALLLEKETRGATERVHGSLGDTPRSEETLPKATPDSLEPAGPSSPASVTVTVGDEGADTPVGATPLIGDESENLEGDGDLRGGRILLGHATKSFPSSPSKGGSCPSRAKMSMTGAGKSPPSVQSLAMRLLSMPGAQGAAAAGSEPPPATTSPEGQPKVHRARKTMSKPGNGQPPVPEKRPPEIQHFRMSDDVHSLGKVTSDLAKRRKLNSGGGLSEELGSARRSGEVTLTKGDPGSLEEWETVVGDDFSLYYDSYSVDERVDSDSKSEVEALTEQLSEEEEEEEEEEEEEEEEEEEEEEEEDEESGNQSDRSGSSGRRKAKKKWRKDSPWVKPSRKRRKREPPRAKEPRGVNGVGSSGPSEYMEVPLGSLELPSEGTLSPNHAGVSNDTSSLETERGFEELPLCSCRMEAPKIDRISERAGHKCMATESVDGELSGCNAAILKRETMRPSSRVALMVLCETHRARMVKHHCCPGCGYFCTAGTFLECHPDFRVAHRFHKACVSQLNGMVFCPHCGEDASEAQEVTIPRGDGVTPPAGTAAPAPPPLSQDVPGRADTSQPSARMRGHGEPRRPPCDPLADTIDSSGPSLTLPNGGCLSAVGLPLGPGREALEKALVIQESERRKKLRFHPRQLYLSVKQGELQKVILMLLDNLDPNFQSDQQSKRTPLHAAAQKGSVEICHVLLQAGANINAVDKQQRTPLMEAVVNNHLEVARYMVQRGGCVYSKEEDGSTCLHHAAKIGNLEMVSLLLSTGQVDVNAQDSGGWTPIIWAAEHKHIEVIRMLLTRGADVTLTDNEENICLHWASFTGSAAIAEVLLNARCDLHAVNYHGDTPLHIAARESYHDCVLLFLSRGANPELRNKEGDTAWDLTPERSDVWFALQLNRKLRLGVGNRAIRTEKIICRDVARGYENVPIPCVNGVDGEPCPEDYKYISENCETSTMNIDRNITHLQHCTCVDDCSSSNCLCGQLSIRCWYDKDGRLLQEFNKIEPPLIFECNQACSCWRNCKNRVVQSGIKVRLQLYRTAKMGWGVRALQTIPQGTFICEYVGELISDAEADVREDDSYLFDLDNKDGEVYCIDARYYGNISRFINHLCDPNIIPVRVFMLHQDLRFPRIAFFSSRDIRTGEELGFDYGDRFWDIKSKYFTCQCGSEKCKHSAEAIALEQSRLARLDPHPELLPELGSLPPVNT

[2] = target: T1, Histone-lysine N-methyltransferase EHMT2; assay: Inhibition of methyl transferase activity of G9a assessed as inhibition of H3K9 methylation by chemiluminescence based oxygen tunneling assay
[3] = target: T2, Histone-lysine N-methyltransferase EHMT1 (Homo sapiens, UniProt Q9H9B1); assay: Activity at methyl transferase activity GLP by chemiluminescence based oxygen tunneling assay
T2 sequence (Q9H9B1 whole entry): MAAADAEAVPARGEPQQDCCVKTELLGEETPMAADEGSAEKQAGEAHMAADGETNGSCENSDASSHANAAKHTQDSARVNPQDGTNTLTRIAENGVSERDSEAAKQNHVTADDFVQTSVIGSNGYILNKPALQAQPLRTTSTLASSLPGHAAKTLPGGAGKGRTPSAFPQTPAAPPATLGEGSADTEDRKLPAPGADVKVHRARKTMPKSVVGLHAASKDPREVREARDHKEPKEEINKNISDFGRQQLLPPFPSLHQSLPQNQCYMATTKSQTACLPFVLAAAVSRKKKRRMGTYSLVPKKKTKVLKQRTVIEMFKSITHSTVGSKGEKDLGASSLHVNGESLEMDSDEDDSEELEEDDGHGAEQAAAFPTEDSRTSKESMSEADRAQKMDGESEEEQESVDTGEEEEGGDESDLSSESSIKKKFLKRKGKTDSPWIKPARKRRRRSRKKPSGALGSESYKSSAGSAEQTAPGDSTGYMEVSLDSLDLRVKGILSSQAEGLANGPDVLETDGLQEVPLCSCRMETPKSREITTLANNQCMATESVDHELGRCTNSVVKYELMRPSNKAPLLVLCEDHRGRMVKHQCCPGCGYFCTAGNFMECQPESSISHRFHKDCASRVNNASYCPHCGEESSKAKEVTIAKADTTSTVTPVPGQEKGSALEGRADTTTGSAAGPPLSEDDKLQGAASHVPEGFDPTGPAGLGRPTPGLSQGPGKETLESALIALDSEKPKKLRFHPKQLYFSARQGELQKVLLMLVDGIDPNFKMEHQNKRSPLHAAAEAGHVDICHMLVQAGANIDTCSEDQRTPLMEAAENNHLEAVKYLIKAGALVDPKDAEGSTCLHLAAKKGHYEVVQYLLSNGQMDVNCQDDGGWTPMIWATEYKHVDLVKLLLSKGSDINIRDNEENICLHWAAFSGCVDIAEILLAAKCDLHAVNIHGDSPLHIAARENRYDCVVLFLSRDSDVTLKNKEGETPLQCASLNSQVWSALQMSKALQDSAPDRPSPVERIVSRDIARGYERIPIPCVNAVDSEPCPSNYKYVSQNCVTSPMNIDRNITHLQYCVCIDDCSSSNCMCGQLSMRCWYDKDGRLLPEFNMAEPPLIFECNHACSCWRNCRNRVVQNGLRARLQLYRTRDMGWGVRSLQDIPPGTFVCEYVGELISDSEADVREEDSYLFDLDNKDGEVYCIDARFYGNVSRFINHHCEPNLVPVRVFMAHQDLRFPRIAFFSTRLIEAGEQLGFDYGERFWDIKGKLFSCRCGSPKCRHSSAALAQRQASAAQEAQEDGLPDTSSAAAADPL

[4] = target: T2, Histone-lysine N-methyltransferase EHMT1; assay: Activity at methyl transferase activity GLP by enzyme coupled S-adenocylehomocystein detection assay
[5] = target: Protein arginine N-methyltransferase 3 (Homo sapiens, UniProt O60678); assay: Activity at methyl transferase activity PRMT3 by enzyme coupled S-adenocylehomocystein detection assay
Sequence of Protein arginine N-methyltransferase 3 (O60678 whole entry): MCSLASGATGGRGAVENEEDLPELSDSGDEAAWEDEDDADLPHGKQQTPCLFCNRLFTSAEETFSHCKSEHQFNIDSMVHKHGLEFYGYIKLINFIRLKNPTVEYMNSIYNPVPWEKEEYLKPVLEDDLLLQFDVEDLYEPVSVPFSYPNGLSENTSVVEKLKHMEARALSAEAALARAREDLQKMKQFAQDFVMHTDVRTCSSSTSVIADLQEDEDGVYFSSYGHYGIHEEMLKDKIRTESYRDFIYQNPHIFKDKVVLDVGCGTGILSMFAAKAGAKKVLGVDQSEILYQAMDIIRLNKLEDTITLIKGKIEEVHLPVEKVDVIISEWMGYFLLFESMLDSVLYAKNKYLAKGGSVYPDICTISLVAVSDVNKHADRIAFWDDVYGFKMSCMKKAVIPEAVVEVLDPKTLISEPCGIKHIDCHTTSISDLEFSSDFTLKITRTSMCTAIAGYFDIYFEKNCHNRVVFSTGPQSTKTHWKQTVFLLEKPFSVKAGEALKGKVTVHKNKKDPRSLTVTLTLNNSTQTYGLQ

[6] = Activity at methyl transferase activity JMJD2E by formaldehyde dehydrogenase-coupled assay
[7] = target: T3, N-lysine methyltransferase KMT5A (Homo sapiens, UniProt Q9NQR1); assay: Activity at methyl transferase activity SET8/preSet7 by enzyme coupled S-adenocylehomocystein detection assay
T3 sequence (Q9NQR1 whole entry): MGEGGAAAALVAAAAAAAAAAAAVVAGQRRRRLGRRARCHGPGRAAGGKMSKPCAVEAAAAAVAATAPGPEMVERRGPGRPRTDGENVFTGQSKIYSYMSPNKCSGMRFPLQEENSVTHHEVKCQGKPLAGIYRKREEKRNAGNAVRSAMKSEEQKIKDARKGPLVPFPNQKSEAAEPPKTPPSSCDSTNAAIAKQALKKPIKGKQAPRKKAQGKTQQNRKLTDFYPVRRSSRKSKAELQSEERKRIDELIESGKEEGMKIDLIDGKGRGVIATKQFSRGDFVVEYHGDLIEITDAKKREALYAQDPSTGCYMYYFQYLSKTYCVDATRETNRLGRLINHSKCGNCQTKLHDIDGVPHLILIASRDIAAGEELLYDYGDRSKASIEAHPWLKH

[8] = target: T4, Histone-lysine N-methyltransferase SETD7 (Homo sapiens, UniProt Q8WTS6); assay: Activity at methyl transferase activity SET7/9 by enzyme coupled S-adenocylehomocystein detection assay
T4 sequence (Q8WTS6 whole entry): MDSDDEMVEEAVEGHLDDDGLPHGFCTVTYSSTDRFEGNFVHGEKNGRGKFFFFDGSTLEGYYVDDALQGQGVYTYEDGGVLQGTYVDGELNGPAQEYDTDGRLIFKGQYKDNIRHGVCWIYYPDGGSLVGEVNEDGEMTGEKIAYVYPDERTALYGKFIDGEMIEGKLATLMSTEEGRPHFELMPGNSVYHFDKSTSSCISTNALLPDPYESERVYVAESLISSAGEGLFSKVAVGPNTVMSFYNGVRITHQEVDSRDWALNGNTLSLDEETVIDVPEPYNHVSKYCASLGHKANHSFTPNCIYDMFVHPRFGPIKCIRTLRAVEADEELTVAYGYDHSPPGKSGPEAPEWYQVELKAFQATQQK

Row | IC50 [1] [µM] | IC50 [2] [µM] | Structure (SMILES) | further results
1 | 0.052 |  | CCN(CC)CCCOc1cc2nc(N3CCCN(C)CC3)nc(NC3CCN(C)CC3)c2cc1OC | 
2 | 0.235 | 0.11 | COc1cc2c(NC3CCN(C)CC3)nc(N3CCCN(C)CC3)nc2cc1OCCCCCN | 
3 | 0.345 | 0.173 | COc1cc2c(NC3CCN(C)CC3)nc(N3CCCN(C)CC3)nc2cc1OCCN(C)CCN(C)C | 
4 |  | 0.006 | COc1cc2c(NC3CCN(C)CC3)nc(N3CCCN(C)CC3)nc2cc1OCCOCCN(C)C | IC50 [3]: 0.023 µM; IC50 [4]: 0.015 µM; IC50 [5]: > 40 µM; IC50 [6]: > 57 µM; IC50 [7]: > 40 µM; IC50 [8]: > 40 µM
5 |  | > 10 | COCCCCOc1cc2nc(N3CCCN(C)CC3)nc(NC3CCN(C)CC3)c2cc1OC | 
6 | 0.057 | 0.11 | COc1cc2c(NC3CCN(C)CC3)nc(N3CCCN(C)CC3)nc2cc1OCCOCCN1CCCC1 | 
7 | 0.095 |  | COc1cc2c(NC3CCN(C)CC3)nc(N3CCCN(C)CC3)nc2cc1OCCCCCN(C)C | 
8 |  | > 10 | CNc1nc(N2CCCN(C)CC2)nc2cc(OC)c(OC)cc12 | 
9 | 0.14 | 0.11 | COc1cc2c(NC3CCN(C)CC3)nc(N3CCCN(C)CC3)nc2cc1OCCCCN(C)C | 
10 |  | > 10 | COc1cc2nc(N3CCCN(C)CC3)nc(OC3CCN(C)CC3)c2cc1OC | 
11 | 0.91 |  | COc1cc2nc(N3CCCN(C)CC3)nc(NC3CCN(C)C3)c2cc1OC (centres undefined) | 
12 |  | > 10 | COc1cc2c(NC3CCN(C)CC3)nc(N3CCCN(C)CC3)nc2cc1OCCCCNC(=O)OC(C)(C)C | 
13 | 0.12 |  | CNCCCOc1cc2nc(N3CCCN(C)CC3)nc(NC3CCN(C)CC3)c2cc1OC | 
14 | 1.5 | 5.1 | COc1cc2c(NC3CCN(C)CC3)nc(N3CCCN(C)CC3)nc2cc1OCC1CCCNC1 (centres undefined) | 
15 | 0.051 |  | CCCN(C)CCCOc1cc2nc(N3CCCN(C)CC3)nc(NC3CCN(C)CC3)c2cc1OC | 
16 | 0.88 | 0.78 | COc1cc2c(NC3CCN(C)CC3)nc(N3CCCN(C)CC3)nc2cc1OCCCN1CCOCC1 | 
17 |  |  | COc1cc2c(NC3CCN(C)CC3)nc(N3CCCN(C)CC3)nc2cc1OCCCN(C)C | IC50 [5]: > 40 µM; IC50 [6]: > 57 µM; IC50 [7]: > 40 µM; IC50 [8]: > 40 µM
18 |  | > 10 | COc1cc2c(NC3CCN(C)CC3)nc(N3CCCN(C)CC3)nc2cc1OCCCCC(N)=O | 

Row | Structure (SMILES) | IC50 [1] [µM] | IC50 [2] [µM] | further results
19 | COc1cc2nc(N3CCCN(C)CC3)nc(N(C)C3CCN(C)CC3)c2cc1OC |  | > 10 | 
